Assay results: US12295937B2, “Psychoactive medicines and their use for treating psychiatric and neurological conditions and disorders” (Transcend Therapeutics, Inc., priority 2021, dated 2025)
pEC50, pIC50: −log10 of the molar value.

Key:
SERT [1] = biological target: T1, SERT (Rattus norvegicus, UniProt P31652); experiment: [3H]5-HT uptake inhibition in rat brain synaptosomes; conditions: read-out: Reuptake inhibition: IC50; rat brain synaptosomes
SERT [2] = biological target: T1, SERT; experiment: [3H]5-HT release from rat brain synaptosomes; assay type: biochemical; design: from tissue; synaptosomes for uptake and release; conditions: rat brain synaptosomes; read-out: Neurotransmitter release: EC50
Description: (§1) Test compounds and synaptosomes were prepared as described for uptake inhibition assays. Synaptosomes treated with [^3H]5-HT, [^3H]DA or [^3H]NE were loaded onto filter chambers containing GF/C filters and placed in a superfusion system. Oxygenated Krebs buffer was perfused through the chambers at a rate of 1.5 mL/minute at 35° C. using either an 8-channel or a 12-channel peristaltic pump. Trapped air bubbles were removed from the filters prior to collecting fractions to ensure an even flow over the synaptosomal bed. After a superfusion period of 45 minutes, 2 basal fractions were collected followed by 6 fractions following the addition of the test drug. […] Scintillation cocktail was added, and the filters counted to determine residual radioactivity. Drug-evoked release of neurotransmitter was calculated by subtracting the average of the two basal fractions (collected prior to the drug addition), from the four fractions collected in the presence of drug. The drug-evoked release was then expressed as a percentage of the basal release. Potassium-evoked release was calculated by subtracting the average of two fractions collected prior to the addition of high KCl buffer from that in the two fractions following addition of high KCl buffer. Potassium-stimulated release was calculated as a percentage of basal release. […]

[3] = Mouse head-twitch response (HTR) test; assay type: in vivo; conditions: i.p., HTR measured for 10 minutes
Description: Head twitch response (HTR) was evaluated using C57BL/6J mice (ages 7-10 weeks). Mice were ear tagged at least three days after arrival to the animal facility and allowed to rest for at least three days before behavioral testing. Small magnets (SuperMagnetMan—N45 magnet 3 mm diameter, 0.5 mm thickness) were glued to car tags (Stoelting—La Pias Aluminum Ear Tags) at least two days before mice were car tagged. The experimental setup was adapted from Gonzales-Macso (de la Fuente Revenga et al., 2019) and Kwan (Jefferson et al., 2022; Savalia et al., 2021), including experimental apparatus and MATLAB code for analysis.
Doses were randomly assigned, and age-matched controls were injected with vehicle and randomly interspersed with drug conditions. At least three animals per sex were used for each drug dose and condition. If animals were used in multiple HTR experiments, experimental sessions took place at least one week apart. Two animals were run at a time. Immediately after i.p. injection of psychedelic or entactogen drug, animals were placed in separate plastic boxes within a larger chamber (Home Depot—28 in. W×32 in. H×21.5 in. D), and HTR was measured for 10 minutes. A small lamp was placed in the back of the larger chamber, and a high-speed camera (Basler-Aca 1920-155 μm) was suspended from the ceiling to record video of the animals in the plastic boxes. […]

5HT5A = biological target: T2, 5HT5A (Homo sapiens, UniProt P47898); experiment: GPCRmax screen, agonist mode, 5HT5A; assay type: cell-based; conditions: 1 or 10 mM
T2 construct: host or cells: PathHunter cell lines

168 GPCRs = 168 GPCRs (Homo sapiens, UniProt Q16602); experiment: β-arrestin GPCR screen (PathHunter / GPCRmax), agonist mode; assay type: cell-based; design: host or cells: PathHunter cell lines; conditions: CALCRL-RAMP3, 1 uM
Description: For agonist determination, cells were incubated with sample to induce response. […] Vehicle concentration was 1%.

[4] = Cued fear conditioning / extinction training and recall; assay type: in vivo, mouse
Description: Methods: Cued fear conditioning was performed in C57BL/6J mice. On day 1, animals were placed in the chambers and presented with a training session (CS-US pairing). The training consisted of a 2-minute habituation followed by a 30-second, 80 dB tone; during the last 2 seconds of the tone animals received a 1 mA foot shock. This US-CS procedure occurred once for a total of one paired presentation of tone and shock. Freezing behavior (immobility) was recorded in 5-10-see intervals during the session. Percent baseline freezing behavior was determined in the 2-minute habituation period. On day 3, animals were placed in context B, in which tactile and odor cues differed from context A. Following a 2 minute acclimation period animals received 4×30 sec presentations of the CS (tone) in the absence of the US (footshock), with a 45 sec interval between presentations. Freezing was recorded in 5-10-sec intervals to measure baseline freezing response to the altered context, and freezing response to each tone cuc presentation. […] On day 4 (Post-Extinction Testing in Drug-Free State), animals were placed in Context B. Following a 2 min acclimation period, animals received 4×30 sec extinction tone duration presentations of the CS (tone) in the absence of the US (footshock), with a 45 sec interval between presentations. Freezing was recorded in 5-10-sec intervals to measure baseline freezing response to the altered context, and freezing response to each tone cue presentation.

NET = NET (Rattus norvegicus, UniProt Q63380); experiment: [3H]NE release from rat brain synaptosomes; assay type: biochemical; design: from tissue; synaptosomes for uptake and release; conditions: rat brain synaptosomes; read-out: Neurotransmitter release: EC50
Description: as §1

[5] = biological target: vesicular monoamine transporter 2 (VMAT2) (Homo sapiens, UniProt Q05940); conditions: cited from earlier work
5HT2C receptor = biological target: T3, 5HT2C receptor (Homo sapiens, UniProt P28335); experiment: GPCRmax screen, agonist mode, 5HT2C; assay type: cell-based; conditions: 1 or 10 mM
T3 construct: host or cells: PathHunter cell lines

[6] = biological target: serotonin transporter (SERT) (Rattus norvegicus, UniProt P31652); experiment: [3H]5HT uptake saturation in rat brain synaptosomes with or without methylone; assay type: biochemical; conditions: Kd right shifted, no decrease in Bmax
Chain of serotonin transporter (SERT) (P31652 whole entry): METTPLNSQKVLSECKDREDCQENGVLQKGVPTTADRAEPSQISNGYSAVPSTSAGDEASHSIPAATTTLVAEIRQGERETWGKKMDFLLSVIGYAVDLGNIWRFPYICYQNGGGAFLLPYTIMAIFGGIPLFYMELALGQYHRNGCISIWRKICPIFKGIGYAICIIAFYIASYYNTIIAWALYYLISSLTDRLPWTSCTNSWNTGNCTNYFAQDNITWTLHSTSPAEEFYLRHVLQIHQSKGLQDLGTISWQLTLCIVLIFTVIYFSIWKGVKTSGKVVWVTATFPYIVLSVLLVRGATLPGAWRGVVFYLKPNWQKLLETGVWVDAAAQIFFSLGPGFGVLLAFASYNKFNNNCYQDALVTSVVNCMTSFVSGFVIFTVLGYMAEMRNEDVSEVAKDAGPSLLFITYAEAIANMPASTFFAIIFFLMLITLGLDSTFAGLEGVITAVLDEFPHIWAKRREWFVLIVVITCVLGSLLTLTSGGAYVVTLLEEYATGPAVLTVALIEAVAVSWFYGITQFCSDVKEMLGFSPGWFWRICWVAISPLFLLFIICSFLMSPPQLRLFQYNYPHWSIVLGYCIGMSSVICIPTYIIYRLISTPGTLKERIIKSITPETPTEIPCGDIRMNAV

T1 sequence (P31652 whole entry): as above
Chain of 168 GPCRs (Q16602 23-461): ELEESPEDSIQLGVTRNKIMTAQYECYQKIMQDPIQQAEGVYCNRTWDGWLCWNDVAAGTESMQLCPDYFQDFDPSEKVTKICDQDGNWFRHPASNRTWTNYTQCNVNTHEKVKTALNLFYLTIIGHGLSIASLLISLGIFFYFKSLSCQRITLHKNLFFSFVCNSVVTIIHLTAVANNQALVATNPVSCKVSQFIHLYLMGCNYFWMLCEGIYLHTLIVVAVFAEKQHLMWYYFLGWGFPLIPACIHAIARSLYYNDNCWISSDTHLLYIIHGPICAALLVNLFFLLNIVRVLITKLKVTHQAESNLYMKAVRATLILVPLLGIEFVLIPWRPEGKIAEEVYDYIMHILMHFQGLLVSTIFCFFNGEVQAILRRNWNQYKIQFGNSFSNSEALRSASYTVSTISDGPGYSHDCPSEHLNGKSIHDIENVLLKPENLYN
T2 sequence (P47898 whole entry): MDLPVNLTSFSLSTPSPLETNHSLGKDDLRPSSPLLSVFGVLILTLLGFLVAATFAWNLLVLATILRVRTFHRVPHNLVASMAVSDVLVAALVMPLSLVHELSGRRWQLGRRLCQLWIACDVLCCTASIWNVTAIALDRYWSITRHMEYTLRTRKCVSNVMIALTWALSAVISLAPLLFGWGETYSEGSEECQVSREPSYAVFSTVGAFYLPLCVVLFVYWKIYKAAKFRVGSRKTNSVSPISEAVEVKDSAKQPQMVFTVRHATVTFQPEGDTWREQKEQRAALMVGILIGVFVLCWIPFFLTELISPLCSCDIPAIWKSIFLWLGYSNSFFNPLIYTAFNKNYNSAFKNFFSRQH
Chain of NET (Q63380 1-617): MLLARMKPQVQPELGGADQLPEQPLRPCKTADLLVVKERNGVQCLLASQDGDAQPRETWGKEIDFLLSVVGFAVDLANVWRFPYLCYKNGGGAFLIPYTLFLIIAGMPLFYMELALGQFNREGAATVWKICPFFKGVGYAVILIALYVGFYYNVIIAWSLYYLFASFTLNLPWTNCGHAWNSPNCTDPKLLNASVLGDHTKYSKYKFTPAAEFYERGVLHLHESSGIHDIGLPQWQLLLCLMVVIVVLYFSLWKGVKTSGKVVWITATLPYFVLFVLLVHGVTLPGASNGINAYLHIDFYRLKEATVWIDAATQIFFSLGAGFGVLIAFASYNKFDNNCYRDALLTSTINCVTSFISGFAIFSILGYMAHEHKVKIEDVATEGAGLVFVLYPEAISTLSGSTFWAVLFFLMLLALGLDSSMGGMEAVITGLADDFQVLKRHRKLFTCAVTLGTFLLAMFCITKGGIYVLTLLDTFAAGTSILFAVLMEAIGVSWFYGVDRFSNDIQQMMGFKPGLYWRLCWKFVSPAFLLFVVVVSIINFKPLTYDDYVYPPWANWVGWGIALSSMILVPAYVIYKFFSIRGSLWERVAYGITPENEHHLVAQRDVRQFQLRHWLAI
T3 sequence (P28335 33-458): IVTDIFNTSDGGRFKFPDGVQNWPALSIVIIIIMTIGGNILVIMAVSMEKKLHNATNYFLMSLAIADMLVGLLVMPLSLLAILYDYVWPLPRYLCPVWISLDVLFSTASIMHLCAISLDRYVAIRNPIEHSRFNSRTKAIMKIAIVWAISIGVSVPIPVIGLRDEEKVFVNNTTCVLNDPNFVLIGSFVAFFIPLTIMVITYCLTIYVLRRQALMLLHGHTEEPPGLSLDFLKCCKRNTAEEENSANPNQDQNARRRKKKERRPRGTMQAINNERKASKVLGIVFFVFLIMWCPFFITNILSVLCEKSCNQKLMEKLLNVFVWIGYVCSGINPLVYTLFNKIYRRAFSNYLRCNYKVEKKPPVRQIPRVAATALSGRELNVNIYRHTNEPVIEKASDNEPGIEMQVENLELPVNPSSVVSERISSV
Chain of vesicular monoamine transporter 2 (VMAT2) (Q05940 whole entry, species assumed): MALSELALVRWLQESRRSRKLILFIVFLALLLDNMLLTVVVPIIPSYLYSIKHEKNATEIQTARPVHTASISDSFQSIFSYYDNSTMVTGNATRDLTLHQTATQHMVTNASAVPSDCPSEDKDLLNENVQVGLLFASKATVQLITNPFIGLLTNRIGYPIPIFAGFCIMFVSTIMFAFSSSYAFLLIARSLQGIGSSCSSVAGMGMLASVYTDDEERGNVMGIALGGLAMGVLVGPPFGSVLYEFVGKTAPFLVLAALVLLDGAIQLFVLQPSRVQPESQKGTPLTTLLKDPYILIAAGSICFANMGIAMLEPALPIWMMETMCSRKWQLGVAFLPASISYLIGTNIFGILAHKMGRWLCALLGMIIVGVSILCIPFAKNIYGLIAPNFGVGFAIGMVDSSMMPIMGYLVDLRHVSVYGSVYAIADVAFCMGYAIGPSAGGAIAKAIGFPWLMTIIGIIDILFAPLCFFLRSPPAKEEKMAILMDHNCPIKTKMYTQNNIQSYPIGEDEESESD

Structure (SMILES): CNC(C)C(=O)c1ccc2c(c1)OCO2 (stereo not drawn) [Methylone, 3,4-methylenedioxy-N-methylcathinone]
- pIC50 (SERT [1]): 6.37
- pEC50 (SERT [2]): 6.21
- Head-twitch behaviors [3]: no effect on head-twitch behaviors at any dose tested
- Agonist % activity (greatest activity detected) (5HT5A): 13.9%
- % Activity (168 GPCRs): −2.2%
- Persistence of effect post dose ([4]; 30 mg/kg IP): at least 11 days
- Effect on fear extinction training and testing ([4]; 30 mg/kg IP, 30 min before extinction training on Day 3): rapid, robust and long-lasting beneficial effect on fear extinction training and testing
- Fear extinction training on day 3 ([4]; 10, 20 or 30 mg/kg IP): All doses significantly improved fear extinction training on day 3
- pEC50 (NET): 6.48
- Affinity for VMAT2, times lower than that of MDMA [5]: about 13 ×
- Agonist % activity (5HT2C receptor): no agonist or antagonist activity
- Type of interaction at the SERT [6]: competitive
